Experimental data: patent publication US20250388569A1, “HETEROCYCLIC COMPOUND FOR INHIBITING AND/OR INDUCING DEGRADATION OF KRAS PROTEIN” (ASTELLAS PHARMA INC., priority 2022, published 2025)

Tests used:
[1] = test system: human G12D mutant KRAS-positive pancreatic cancer line AsPC-1; experiment: Non-anchorage-dependent cell growth inhibitory effect, spheroid 3D cell culture (Test Example 2); assay type: cell-based; settings: AsPC-1 spheroid 3D culture, 6 days, CellTiter Glo 2.0
Experimental: Test Example 2: Evaluation of Non-Anchorage-Dependent Cell Growth Inhibitory Effect on Human G12D Mutant KRAS-Positive Pancreatic Cancer Line AsPC-1
The non-anchorage-dependent cell growth inhibitory effect of test compounds was evaluated by spheroid 3D cell culture.
AsPC-1 cells were seeded on low-cell-adhesive round bottom 384-well plates (PrimeSurface: from Sumitomo Bakelite) at 36 μL/well to give 5×10^2 cells per well. As for the cell culture conditions, RPMI 1640 medium containing 10% fetal bovine serum was used in the presence of 5% CO2 at 37° C.
The next day, the test compounds (6 points having final concentrations in the range of 10 μM to 30 nM) and DMSO, which was the solvent for the test compounds, as a negative control were diluted 100-fold with a fresh medium and were added at 4 μL per well. After culturing in the presence of 5% CO2 at 37° C. for 6 days, CellTiter Glo 2.0 (from Promega) was added at 20 μL per well. After stirring with a plate mixer (from FINEPCR) at normal temperature for 1 hour, the luminescent signals were measured with ARVO X3 (from PerkinElmer).
With the signaling value in treatment with DMSO taken as 100% and with the signaling value in the medium alone without cells taken as 0%, the 50% inhibitory concentration values (IC50) were calculated by Sigmoid-Emax nonlinear regression analysis.

[2] = target: T1, KRAS G12D (Homo sapiens, UniProt P01116, G12D); experiment: Evaluation of KRAS degradation activity on AsPC-1 by Cell ELISA (Test Example 1); assay type: cell-based; settings: degradation rate of KRAS G12D at 1 μM in AsPC-1 cells, cultured overnight, corrected with β-actin
T1 construct: host or cells: AsPC-1 human pancreatic cancer cells
Experimental: Test Example 1: Evaluation of KRAS Degradation Activity on Human G12D Mutant KRAS-Positive Pancreatic Cancer Line AsPC-1 (CRL-1682; ATCC)
The KRAS degradation activity of test compounds was evaluated by measuring the expression levels of KRAS G12D by Cell ELISA.
AsPC-1 cells were seeded at 20 μL per well on 384-well plates (from Greiner bio-one) to give 2.0×10^4 cells per well. As for the cell culture conditions, RPMI 1640 (from Sigma-Aldrich) medium containing 10% fetal bovine serum (from Cytiva) was used in the presence of 5% CO2 at 37° C.
The next day, the test compounds (10 points having final concentrations in the range of 10 μM to 0.3 nM) and DMSO (from FUJIFILM Wako Pure Chemical Corporation), which was the solvent for the test compounds, as a negative control were diluted 500-fold with a fresh medium and were added at 20 μL per well. The cells were cultured overnight.
The next day, the culture supernatant was removed, and 4% paraformaldehyde phosphate buffer (from FUJIFILM Wako Pure Chemical Corporation) was added at 20 μL per well. The plates were allowed to stand for 30 minutes at room temperature to thus immobilize the cells. Then, the supernatant was removed, and 0.1% Triton X-100 (from Amersham Biosciences)-containing Phosphate buffered saline (PBS; from FUJIFILM Wako Pure Chemical Corporation) was added at 20 μL per well. After allowing to stand for 10 minutes at room temperature, the supernatant was removed. PBS was added at 25 μL per well, and the supernatant was removed to thus wash each well. The washing was performed twice in total. Next, the supernatant was removed, and 0.5% sodium dodecyl sulfate (SDS; from Invitrogen)-containing PBS was added at 20 μL per well. After allowing to stand at room temperature for 10 minutes, the supernatant was removed by a centrifugal operation (using a centrifugal dehydrator machine, the supernatant was removed by the same method hereinafter). PBS was added at 25 μL per well, and the supernatant was removed to thus wash each well. The washing was performed twice in total. The supernatant was removed, and blocking solution (Intercept Blocking Buffer; from Li-COR Biosciences) was added at 20 μL per well. After allowing to stand for 30 minutes at room temperature, the supernatant was removed, and a solution obtained by diluting anti-β-actin antibody (Anti-beta Actin antibody [mAbcam 8226]-Loading Control; from abcam) 1,000-fold with blocking solution and a solution obtained by diluting anti-Ras (G12D Mutant Specific) antibody (Ras (G12D Mutant Specific) (D8H7) Rabbit mAb #14429; from Cell Signaling Technology) and anti-β-actin antibody (from abcam) 1,000-fold with blocking solution were respectively added to positive control wells and the other wells at 15 μL per well as a primary antibody. The plates were allowed to stand overnight at 4° C.
The next day, the supernatant was removed. PBS was added at 25 μL per well, and the supernatant was removed to thus wash each well. The washing was performed twice in total. The supernatant was removed, and a solution obtained by diluting Donkey anti-Mouse IgG H&L (IRDye 680RD) (from Li-COR Biosciences) and Goat anti-Rabbit IgG H&L (IRDye 800CW) (from Li-COR Biosciences) 1,000-fold with blocking solution was added at 15 μL per well as a secondary antibody. After allowing to stand for 1 hour at room temperature, the supernatant was removed. PBS was added at 25 μL per well, and the supernatant was removed to thus wash each well. The washing was performed twice in total. After removing the supernatant, the plates were dried with air at room temperature for 2 hours or more, and the 700 nm and 800 nm fluorescent signals were measured with Aerius (from Li-COR Biosciences). […]

Row | Molecule | IC50 ([1]; Homo sapiens, ASPC1, 144 h) [µM] | % degradation [2] [%] | IC50 [1] [µM]
1 | Cc1c(F)cc2[nH]ncc2c1-c1c(C2CC2)cc2c(N3C[C@@H]4C[C@H]3CN4)nc(OC3CCOCC3)nc2c1OCc1ccc(C(=O)N2C[C@H]3CN(Cc4ccc5c(c4)CN(C(=O)c4cc(C(C)C)c(O)cc4O)C5)C[C@H]3C2)cc1 (atropisomer, axis not shown) [Example 4] | 5.1 | 15 | 
2 | Cc1c(F)cc2[nH]ncc2c1-c1c(C2CC2)cc2c(N3C[C@@H]4C[C@H]3CN4)nc(OC3CCOCC3)nc2c1OCc1ccc(C(=O)N2CCCN(Cc3ccc4c(c3)CN(C(=O)c3cc(C(C)C)c(O)cc3O)C4)CC2)cc1 (atropisomer, axis not shown) [Example 7] |  | 20 | 
3 | Cc1c(F)cc2[nH]ncc2c1-c1c(C2CC2)cc2c(N3C[C@@H]4C[C@H]3CN4)nc(OC3CCOCC3)nc2c1OCc1ccc(C(=O)N2CCC3(CC2)CN(Cc2ccc4c(c2)CN(C(=O)c2cc(C(C)C)c(O)cc2O)C4)C3)cc1 (atropisomer, axis not shown) [Example 10] | 3.7 | 37 | 
4 | Cc1c(F)cc2[nH]ncc2c1-c1c(C2CC2)cc2c(N3C[C@@H]4C[C@H]3CN4)nc(OC3CCOCC3)nc2c1OCc1ccc(CN2CCN(C(=O)c3ccc4c(c3)CN(C(=O)c3cc(C(C)C)c(O)cc3O)C4)CC2)cc1 (atropisomer, axis not shown) [Example 15] | 3.9 | 17 | 
5 | Cc1c(F)cc2[nH]ncc2c1-c1c(C2CC2)cc2c(N3C[C@@H]4C[C@H]3CN4)nc(OC3CCOCC3)nc2c1OCc1ccc(C(=O)N2C3CCC2CN(Cc2ccc4c(c2)CN(C(=O)c2cc(C(C)C)c(O)cc2O)C4)C3)cc1 [Example 9] | 3.4 |  | 
6 | CO[C@@H](C)COc1cc(O[C@H]2CCNC2)c2cc(C3CC3)c(-c3c(C)c(F)cc4[nH]ncc34)c(OCc3ccc(C(=O)N4CCN(C(=O)c5ccc6c(c5)CN(C(=O)c5cc(C(C)C)c(O)cc5O)C6)C[C@@H]4C)cc3)c2n1 [Example 16] |  | 30 | 
7 | Cc1c(F)cc2[nH]ncc2c1-c1c(C2CC2)cc2c(N3C[C@@H]4C[C@H]3CN4)nc(OC3CCOCC3)nc2c1OCc1ccc(C(=O)N2CCN(C(C)C(=O)c3ccc4c(c3)CN(C(=O)c3cc(C(C)C)c(O)cc3O)C4)CC2)cc1 (stereo partly shown) [Example 18] | 7.4 | 20 | 
8 | {4-[({(7M)-6-cyclopropyl-4-[(1S,4S)-2,5-diazabicyclo[2.2.1]heptan-2-yl]-7-(6-fluoro-5-methyl-1H-indazol-4-yl)-2-[(oxan-4-yl)oxy]quinazolin-8-yl}oxy)methyl]phenyl) {4-[(4-{3-[2,4-dihydroxy-5-(propan-2-yl)phenyl]-5-hydroxy-4H-1,2,4-triazol-4-yl)phenyl)methyl]piperazin-1-yl}methanone [Example 5] |  | 46 | 2.2

More lines, in order of falling IC50 ([1]; Homo sapiens, ASPC1, 144 h), values ahead:

Row | IC50 ([1]; Homo sapiens, ASPC1, 144 h) [µM] | % degradation [2] [%] | IC50 [1] [µM] | Molecule
9 | 3.6 | 25 |  | Cc1c(F)cc2[nH]ncc2c1-c1c(C2CC2)cc2c(N3C[C@@H]4C[C@H]3CN4)nc(OC3CCOCC3)nc2c1OCc1ccc(C(=O)N2CCN(Cc3ccc4c(c3)CN(C(=O)c3cc(C(C)C)c(O)cc3O)C4)CC2)cc1 (atropisomer, axis not shown) [Example 6]
10 | 3.5 | 20 |  | Cc1c(F)cc2[nH]ncc2c1-c1c(C2CC2)cc2c(N3C[C@@H]4C[C@H]3CN4)nc(OC3CCOCC3)nc2c1OCc1ccc(C(=O)N2CCN(CC3CN(Cc4ccc5c(c4)CN(C(=O)c4cc(C(C)C)c(O)cc4O)C5)C3)CC2)cc1 (atropisomer, axis not shown) [Example 12]
11 | 3.3 | 43 |  | Cc1c(F)cc2[nH]ncc2c1-c1c(C2CC2)cc2c(N3C[C@@H]4C[C@H]3CN4)nc(OC3CCOCC3)nc2c1OCc1ccc(C(=O)N2CCN(C(=O)c3ccc4c(c3)CN(C(=O)c3cc(C(C)C)c(O)cc3O)C4)CC2)cc1 (atropisomer, axis not shown; (M)) [Example 1, [5-(4-{4-[({(7M)-6-cyclopropyl-4-[(1S,4S)-2,5-diazabicyclo[2.2.1]heptan-2-yl]-7-(6-fluoro-5-methyl-1H-indazol-4-yl)-2-[(oxan-4-yl)oxy]quinazolin-8-yl}oxy)methyl]benzoyl)piperazine-1-carbonyl)-1,3-dihydro-2H-isoindol-2-yl][2,4-dihydroxy-5-(propan-2-yl)phenyl]methanone]
12 | 2.9 | 51 |  | Cc1c(F)cc2[nH]ncc2c1-c1c(C2CC2)cc2c(N3C[C@@H]4C[C@H]3CN4)nc(OC3CCOCC3)nc2c1OCc1ccc(C(=O)N2CCN(C3CCN(Cc4ccc5c(c4)CN(C(=O)c4cc(C(C)C)c(O)cc4O)C5)CC3)CC2)cc1 (atropisomer, axis not shown) [Example 11]
13 | 2.8 | 46 |  | Cc1c(F)cc2[nH]ncc2c1-c1c(C2CC2)cc2c(N3C[C@@H]4C[C@H]3CN4)nc(OC3CCOCC3)nc2c1OCc1ccc(C(=O)N2CCN(C(=O)c3ccc4c(c3)CN(C(=O)c3cc(C(C)C)c(O)cc3O)C4)C[C@H]2C)cc1 (atropisomer, axis not shown) [Example 3]
14 | 2.3 |  |  | Cc1c(F)cc2[nH]ncc2c1-c1c(C2CC2)cc2c(N3C[C@@H]4C[C@H]3CN4)nc(OC3CCOCC3)nc2c1OCc1ccc(C(=O)N2CCN(CCCOc3ncc4c(n3)CCN(C(=O)c3cc(C(C)C)c(O)cc3O)C4)CC2)cc1 (atropisomer, axis not shown) [Example 19]
15 | 2 | 57 |  | CO[C@@H](O)COc1nc(N(C)[C@H]2CCNC2)c2cc(C3CC3)c(-c3c(C)c(F)cc4[nH]ncc34)c(OCc3ccc(C(=O)N4CCN(C(=O)c5ccc6c(c5)CN(C(=O)c5cc(C(C)C)c(O)cc5O)C6)C[C@@H]4C)cc3)c2n1 (atropisomer, axis not shown) [Example 13]
16 | 1.9 | 44 |  | Cc1c(F)cc2[nH]ncc2c1-c1c(C2CC2)cc2c(N3C[C@@H]4C[C@H]3CN4)nc(OC3CCOCC3)nc2c1OCc1ccc(C(=O)N2CCN(C(=O)c3ccc4c(c3)CN(C(=O)c3cc(C(C)C)c(O)cc3O)C4)C[C@@H]2C)cc1 (atropisomer, axis not shown) [Example 2]
